Columns and labels:
[1] = test system: ⍺4β7 on RPMI8866 cells; experiment: Flow cytometry: cross-inhibition of MAdCAM-Ig, VCAM-Ig and D1D2-Ig⍺tp binding to RPMI8866 cells; design: species or system human; conditions: increasing concentrations of unlabeled inhibitor, Fig 2C, 2D
Method: Cis interactions between various integrins and leukocyte receptors are known to regulate immune cell functions. To determine whether CD4 inhibits MAdCAM-1 or VCAM-1 binding to ⍺4β7 we preincubated RPMI8866 cells with labelled MAdCAM-Ig or VCAM-Ig in the presence of increasing concentrations of unlabeled D1D2-Ig⍺tp. […] This implies that MAdCAM-1 and VCAM-1, acting in trans, may interfere with CD4-⍺4β7 interactions. What remains unknown is whether interactions between ⍺4β7 and CD4 impact CD4 migration into the TCR and subsequent interactions with MHC II (Fig 2E).
Fig 2 Cross-inhibition of MAdCAM-Ig, VCAM-Ig and D1D2-Ig⍺tp binding to ⍺4β7. Flow cytometric analysis of (A) PE -conjugated MAdCAM-Ig or (B) PE -conjugated VCAM-Ig binding to RPMI8866 cells pre-incubated with increasing concentrations of unlabeled D1D2-Igαtp. Cell preincubated with increasing concentrations of (C) unlabeled MAdCAM-Ig or (D) VCAM-Ig followed by PE -conjugated D1D2-Ig⍺tp. Y-axis indicates gMFI. Dashed line indicates gMFI in the absence of any inhibitor.
Cells were stained with fluoresceine conjugated mAbs or recombinant proteins using standard procedures preceded by Fc receptor blocking with human IgG. Buffers used were 10 mM HEPES 150 mM NaCl (HBS Buffer) with 100 μM CaCl2. […] Data were acquired using a FACSCanto II (BD Biosciences) and analyzed with FlowJo software (BD Biosciences). […]

[2] = test system: ⍺4β7 transfected 293T cells; experiment: Flow cytometry: staining of 293T cells co-transfected with ⍺4 and β7 expression vectors; format: binding; conditions: PE-labelled ligand, Fig 1C
Excerpt: The FRET/FLIM results described above indicate a direct interaction between CD4 and ⍺4β7. […] To this end we employed a fluorescently labelled soluble dodecameric CD4 Ig fusion protein, termed D1D2-Ig⍺tp, that includes the two N-terminal Ig-like domains of CD4 (D1D2, aa 1–180), followed by IgG1 CH2 and CH3 domains, followed by the 18 aa tail-piece domain of IgA (⍺tp). In this oligomer, 12 D1D2-Igs are arranged in a disulphide linked daisy-chain (Fig 1A). Primary CD4^+ T cells, some of which express ⍺4β7, were reacted with D1D2-Ig⍺tp and analyzed by flow-cytometry. A second oligomeric Ig fusion protein, MicA-Ig⍺tp, which includes the two N-terminal domains of MicA, was employed as a specificity control. […] MAdCAM-Ig was employed as a positive control. […] We conclude that an oligomeric soluble CD4 that includes only its two N-terminal domains can bind to ⍺4β7 in a specific way.
Fig 1 Binding of soluble CD4 to ⍺4β7 on CD4^+ T cells. (A) Schematic of D1D2-Ig⍺tp. […] X-axis indicates geometric mean fluorescence intensity (gMFI). […]
Cells were stained with fluoresceine conjugated mAbs or recombinant proteins using standard procedures preceded by Fc receptor blocking with human IgG. […] Data were acquired using a FACSCanto II (BD Biosciences) and analyzed with FlowJo software (BD Biosciences). […]

MAdCAM-Ig: recombinant MAdCAM-1 Ig fusion, R&D Systems [reference compound]
inhibition of PE-conjugated D1D2-Ig⍺tp binding to ⍺4β7 (in words) [1]: inhibited D1D2-Ig⍺tp binding to ⍺4β7 in a dose dependent manner | binding to ⍺4β7 transfected versus untransfected 293T cells (in words) [2]: bound preferentially to ⍺4β7 transfected cells
